Tests used:
[1] = molar heat capacity at constant pressure; details: 101.33 kPa, Liquid, Large sample (1 g) DSC
[2] = 101.33 kPa, Liquid; for speed of sound: Pulse-echo method; for mass density: Pycnometric method

CCCCCCCCCCCCBr [1-bromododecane]
[1]
Details | molar heat capacity at constant pressure [J/K/mol]
298.15 K | 399.29
303.15 K | 402.38
308.15 K | 405.47
313.15 K | 408.56
318.15 K | 411.65
323.15 K | 414.75
328.15 K | 417.84
333.15 K | 420.93
338.15 K | 424.02
343.15 K | 427.11
348.15 K | 430.2
353.15 K | 433.26
358.15 K | 436.35
363.15 K | 439.44
368.15 K | 442.53
373.15 K | 445.62
378.15 K | 448.72
383.15 K | 451.81
388.15 K | 454.9
393.15 K | 457.99
398.15 K | 461.08
403.15 K | 464.14
408.15 K | 467.23
413.15 K | 470.32
418.15 K | 473.41
423.15 K | 476.5

CCCCCCBr [1-bromohexane]
[1]
Details | molar heat capacity at constant pressure [J/K/mol]
298.15 K | 219.66
303.15 K | 221.28
308.15 K | 222.9
313.15 K | 224.51
318.15 K | 226.13
323.15 K | 227.77
328.15 K | 229.38
333.15 K | 231
338.15 K | 232.62
343.15 K | 234.24
348.15 K | 235.87
353.15 K | 237.49
358.15 K | 239.11
363.15 K | 240.72
368.15 K | 242.34
373.15 K | 243.96
378.15 K | 245.59
383.15 K | 247.21
388.15 K | 248.83
393.15 K | 250.45
398.15 K | 252.06
403.15 K | 253.68
408.15 K | 255.32
413.15 K | 256.93
418.15 K | 258.55
423.15 K | 260.17

CCCCCCCCCCBr [1-bromodecane]
[1]
Details | molar heat capacity at constant pressure [J/K/mol]
298.15 K | 334.38
303.15 K | 336.85
308.15 K | 339.35
313.15 K | 341.85
318.15 K | 344.35
323.15 K | 346.85
328.15 K | 349.35
333.15 K | 351.85
338.15 K | 354.33
343.15 K | 356.83
348.15 K | 359.33
353.15 K | 361.82
358.15 K | 364.32
363.15 K | 366.82
368.15 K | 369.32
373.15 K | 371.8
378.15 K | 374.3
383.15 K | 376.8
388.15 K | 379.3
393.15 K | 381.8
398.15 K | 384.3
403.15 K | 386.8
408.15 K | 389.27
413.15 K | 391.77
418.15 K | 394.27
423.15 K | 396.77

CCCCCCCCCCCBr [1-bromoundecane]
[1]
Details | molar heat capacity at constant pressure [J/K/mol]
298.15 K | 373.22
303.15 K | 375.72
308.15 K | 378.21
313.15 K | 380.7
318.15 K | 383.19
323.15 K | 385.69
328.15 K | 388.18
333.15 K | 390.67
338.15 K | 393.17
343.15 K | 395.66
348.15 K | 398.15
353.15 K | 400.62
358.15 K | 403.12
363.15 K | 405.61
368.15 K | 408.1
373.15 K | 410.6
378.15 K | 413.09
383.15 K | 415.58
388.15 K | 418.08
393.15 K | 420.57
398.15 K | 423.06
403.15 K | 425.56
408.15 K | 428.02
413.15 K | 430.52
418.15 K | 433.01
423.15 K | 435.5

CCCCCCCCCCCCCCBr [1-tetradecyl bromide]
Details | mass density, [2] [kg/m3] | molar heat capacity at constant pressure, [1] [J/K/mol] | speed of sound, [2] [m/s]
298.15 K | 1012.2 | 450.84 | 1277.2
303.15 K | 1008.1 | 454.08 | 1260.6
308.15 K | 1003.9 | 457.3 | 1244.1
313.15 K | 999.8 | 460.54 | 1227.9
318.15 K | 995.7 | 463.79 | 1211.9
323.15 K | 991.6 | 467.03 | 1196
328.15 K | 987.4 | 470.27 | 1180.4
333.15 K | 983.3 | 473.52 | 1164.9
338.15 K | 979.1 | 476.73 | 1149.6
343.15 K | 974.9 | 479.98 | 1134.5
348.15 K | 970.8 | 483.22 | 1119.5
353.15 K | 966.6 | 486.47 | 1104.6
358.15 K | 962.4 | 489.71 | 1089.9
363.15 K | 958.2 | 492.93 | 1075.3
368.15 K | 954 | 496.17 | 1060.9
373.15 K | 949.8 | 499.42 | 1046.5
378.15 K | 945.6 | 502.66 | 1032.3
383.15 K | 941.3 | 505.9 | 1018.2
388.15 K | 937.1 | 509.15 | 1004.2
393.15 K | 932.9 | 512.37 | 990.2
398.15 K | 928.6 | 515.61 | 976.4
403.15 K | 924.4 | 518.85 | 962.6
408.15 K | 920.1 | 522.1 | 948.9
413.15 K | 915.9 | 525.34 | 935.3
418.15 K | 911.6 | 528.56 | 921.7
423.15 K | 907.4 | 531.8 | 908.1

CCCCCCCCBr [1-bromooctane]
[1]
Details | molar heat capacity at constant pressure [J/K/mol]
298.15 K | 272.15
303.15 K | 274.7
308.15 K | 277.25
313.15 K | 279.8
318.15 K | 282.35
323.15 K | 284.92
328.15 K | 287.47
333.15 K | 290.02
338.15 K | 292.56
343.15 K | 295.11
348.15 K | 297.66
353.15 K | 300.23
358.15 K | 302.78
363.15 K | 305.33
368.15 K | 307.88
373.15 K | 310.43
378.15 K | 313
383.15 K | 315.55
388.15 K | 318.1
393.15 K | 320.64
398.15 K | 323.19
403.15 K | 325.76
408.15 K | 328.31
413.15 K | 330.86
418.15 K | 333.41
423.15 K | 335.96

CCCCCCCCCBr [1-bromononane]
[1]
Details | molar heat capacity at constant pressure [J/K/mol]
298.15 K | 308.3
303.15 K | 310.56
308.15 K | 312.82
313.15 K | 315.1
318.15 K | 317.36
323.15 K | 319.61
328.15 K | 321.87
333.15 K | 324.15
338.15 K | 326.41
343.15 K | 328.67
348.15 K | 330.92
353.15 K | 333.2
358.15 K | 335.46
363.15 K | 337.72
368.15 K | 339.98
373.15 K | 342.26
378.15 K | 344.51
383.15 K | 346.77
388.15 K | 349.03
393.15 K | 351.31
398.15 K | 353.57
403.15 K | 355.82
408.15 K | 358.08
413.15 K | 360.36
418.15 K | 362.62
423.15 K | 364.88

CCCCCCCBr [1-bromoheptane]
[1]
Details | molar heat capacity at constant pressure [J/K/mol]
298.15 K | 249.39
303.15 K | 251.24
308.15 K | 253.07
313.15 K | 254.91
318.15 K | 256.75
323.15 K | 258.58
328.15 K | 260.43
333.15 K | 262.27
338.15 K | 264.1
343.15 K | 265.94
348.15 K | 267.77
353.15 K | 269.61
358.15 K | 271.46
363.15 K | 273.29
368.15 K | 275.13
373.15 K | 276.98
378.15 K | 278.8
383.15 K | 280.65
388.15 K | 282.47
393.15 K | 284.32
398.15 K | 286.16
403.15 K | 287.99
408.15 K | 289.83
413.15 K | 291.68
418.15 K | 293.51
423.15 K | 295.35

From the NIST ThermoML archive (doi:10.1007/s10765-016-2064-y)
